Values after ≈ are worked out from the molar mass of the structure shown.
Columns and labels:
[1] = type: in vivo; conditions: formulated in 20% DMA, 40% proplyeneglycol in 8% Cremophor-EL; apparent embolitic effect from drug precipitation
Procedure: The literature vehicle reported for formulation of 5-chloro-2-(2,4-difluoro-3-aminocarbonylphenoxy)methylpyridylthiazole for i.v. administration consists of 20% DMA, 40% polyethylene glycol and 40% saline. […] Mice that were treated 15 minutes later with a second injection consisting of 150 μl of this vehicle died. In addition, concentrations of 5-chloro-2-(2,4-difluoro-3-aminocarbonylphenoxy)methylpyridylthiazole at or above 2.2 mg/ml in this vehicle were not completely dissolved and existed as a suspension (in a 28 g mouse this would be 15.7 mg/kg). A number of other formulations with 5-chloro-2-(2,4-difluoro-3-aminocarbonylphenoxy)methyl benzothiazole were tried, such as 20% DMA, 40% proplyeneglycol in 8% Cremophor-EL. […] Because of the limited solubility and the absence of a suitable vehicle, the literature study where it was reported that a 30 mg/kg dose of 5-chloro-2-(2,4-difluoro-3-aminocarbonylphenoxy)methylpyridylthiazole was delivered to mice in a single injection could not be repeated. […] In some instances the addition of 10-30% propylene glycocol did allow for greater retention of solubility of the test compounds. Example 4 was also found to formulate well at a 2.0 mg/ml concentration in 10 mM malic acid with 20% propylene glycol and with 10 mM p-toluenesulphonate alone. Example 6 did formulate well in 10 mM citrate alone at a concentration of 2.0 mg/ml. […]

MSSA = test: Test A antibacterial assay, broth microdilution MIC; type: cell-based; conditions: Staphylococcus aureus, growth read after 24 to 48 hours at OD 600 nm
Procedure: Test A. Antibacterial Assay. Antibacterial activity can be determined as per Clinical and Laboratory Standards Institute (CLSI) guidelines using a broth microdilution assay in which log-phase bacteria are grown at 37° C. in appropriate medium containing two-fold serial dilutions of a compound to yield final concentrations ranging from 256 to 0.06 μg/mL. For determination of minimal inhibitory concentration (MIC) values, bacterial growth is monitored after 24 to 48 hours by measuring optical density at 600 nm.

[2] = tested on: Bacillus subtilis FG347 bacteria; test: Test C FtsZ Z-ring assay (GFP-ZapA fluorescence microscopy); type: cell-based; conditions: compound at 3 μg/mL
Procedure: Test C. FtsZ Z-Ring Assay.
The impact of a compound on FtsZ Z-ring formation can be determined using a strain of Bacillus subtilis (FG347) that expresses a green fluorescent protein (GFP)-ZapA fusion protein upon induction with xylose. ZapA is known to associate with FtsZ Z-rings in B. subtilis and, thus, serves as a marker for Z-ring formation. In this assay, log-phase FG347 bacteria are treated with differing concentrations of compound for time periods ranging from 1 to 6 hours. At each time point, aliquots are taken from each culture and then viewed with a fluorescence microscope.
Examples 4 and 6-8 were evaluated for their impact on the polymerization of Staphylococcus aureus FtsZ. […] In addition, Example 5 and 7 were also examined for their impact on FtsZ Z-ring formation in Bacillus subtilis FG347 bacteria. […] These collective results highlight the compounds of the invention as FtsZ-targeting antibacterial agents.

SMILES | outcome of mice treated with the formulation [1] | MIC (MSSA) [µg/mL] | bacterial morphology induced [2] | impact on FtsZ Z-ring formation [2]
NC(=O)c1c(F)ccc(OCc2nc3cc(Cl)ccc3s2)c1F [5-chloro-2-(2,4-difluoro-3-aminocarbonylphenoxy)methyl benzothiazole] | died within a few minutes | – | – | –
O=C(NCN1CCOCC1)c1c(F)ccc(OCc2nc3cc(Cl)cnc3s2)c1F [Example 7] | – | 0.5 (≈ 1.1 µM) | elongated, filamentous morphology | inhibit FtsZ Z-ring formation

Source: patent US9475783B2, “Antimicrobial agents” (Rutgers, the State University of New Jersey, priority 2012, dated 2016)
